Where two headings read alike, the source gives them in different places.
Columns and labels:
Type in all cases: in vivo
small brown planthopper [1] = test: whole plant or invertebrate; details: Laodelphax striatellus, 72 h
Description: (§1) Rice seedlings grown in pots were subjected to soil drenching treatment with solutions of the inventive compounds at a predetermined concentration prepared to 10% acetone/water. Three days following treatment, ten second-instar small brown planthopper larvae were released onto each seedling. The treated seedlings and larvae were then held in an incubation chamber at 25° C. (16-hour period of light, 8-hour dark period). Three days after released, the numbers of live and dead insects were counted, and the mortality was calculated from the following formula. The test was carried out as two replications. Mortality (%)=[number of dead insects/(number of live insects+number of dead insects)]×100

[2] = test system: brown rice planthopper having a low susceptibility to insecticides; design: key to Brown rice planthopper, Kumamoto low susceptibility (rice soil drenching), effect: mortality %, dead/(live+dead) ×100; details: rice soil drenching, 0.05 mg/pot
Description: as §1, with “days after” for “days following”, “second-instar” for “second-instar small”, “brown rice” for “brown”, “larvae having a low susceptibility to insecticides” for “larvae”, “The” for “The treated”, “and insects” for “and larvae”
The pests used in this test were insects that had been raised indoors for successive generations over a long period of time (susceptible line), and insects that had been raised indoors for successive generations after being collected (I) in 2007 within Kumamoto Prefecture and (II) in 2005 within Fukuoka Prefecture (field-collected lines).

cotton aphid = test: whole plant or invertebrate; details: Aphis gossypii, foliar
Description: (§2) Leaf discs 2.0 cm in diameter were cut from cucumber plants grown in pots, and these were sprayed with solutions of the inventive compounds at a predetermined concentration prepared to 50% acetone/water (containing 0.05% Tween 20). The treated leaf discs were air dried, following which first-instar larvae were released onto the discs. The leaf discs and larvae were then held in an incubation chamber at 25° C. (16-hour period of light, 8-hour dark period). Three days after released, the numbers of live and dead insects were counted, and the mortality was calculated from the following formula. This was a two-replication test. Mortality (%)=[number of dead insects/(number of live insects+number of dead insects)]×100

diamondback moth = test: whole plant or invertebrate; details: Plutella xylostella, foliar
Description: as §2, with “5.0” for “2.0”, “cabbage” for “cucumber”, “second-instar” for “first-instar”

small brown planthopper [3] = test: whole plant or invertebrate; details: Laodelphax striatellus, in Triticum aestivum, 96 h
Description: as §1, with “Wheat seedling roots 48 hours after sowing” for “Rice seedlings grown in pots”, “treated” for “subjected to soil drenching treatment”, “After allowing the roots to absorb the chemical for 72 hours,” for “Three days following treatment,”, “Four” for “Three”

rice leaf bug = test: whole plant or invertebrate; details: foliar, 72 h
Description: The treated seedlings were air-dried, then each was placed in a glass cylinder and two second-instar rice leaf bug larvae were released within the same glass cylinder. Following release of the insects, the tube was capped and held in an incubation chamber at 25° C. (16-hour period of light, 8-hour dark period). […] Three days after released, the numbers of live and dead insects were counted, and the mortality was calculated from the following formula. Mortality (%)=[number of dead insects/(number of live insects+number of dead insects)]×100

common cutworm = test: whole plant or invertebrate; details: foliar application, 500 ppm
Description: as §2, with “5.0” for “2.0”, “cabbage” for “cucumber”, “third-instar” for “first-instar”

western flower thrips = test: whole plant or invertebrate; details: Frankliniella occidentalis, foliar
Description: as §2, with “2.8” for “2.0”, “bean” for “cucumber”

[4] = rice soil drenching, 0.05 mg/pot (Table 13), read-out: Small brown planthopper (rice soil drenching), effect
[5] = rice soil drenching, 0.01 mg/pot (Table 13), read-out: Small brown planthopper (rice soil drenching), effect
[6] = soil, read-out: Small brown planthopper (rice soil drenching), effect
[7] = read-out: Insecticidal effects (mortality), diamondback moth second-instar larvae
[8] = read-out: Insecticidal effects (mortality), small brown planthopper second-instar larvae
[9] = read-out: Insecticidal effects (mortality), cotton aphid first-instar larvae
[10] = soil, read-out: Insecticidal effects (mortality), small brown planthopper second-instar larvae
[11] = read-out: Insecticidal effects (mortality), western flower thrips first-instar larvae

N#CN=c1ccccn1Cc1ccc(Cl)nc1 [Comparative Example 2, N-[1-((6-chloropyridin-3-yl)methyl)pyridin-2(1H)-ylidene]cyanamide, reference compound]
pest or weed control at 0.05 mg/pot (small brown planthopper [1]; [4]): 20%

CC(=O)/N=c1\ccccn1Cc1ccc(Cl)nc1 [Comparative Example 3, N-[1-((6-chloropyridin-3-yl)methyl)pyridin-2(2H)-ylidene]acetamide, reference compound]
pest or weed control at 0.05 mg/pot (small brown planthopper [1]; [4]): 10%

O=C(/C=C1\NCCN1Cc1ccc(Cl)nc1)C(F)(F)F [Comparative Example 4, 3-[1-((6-chloropyridin-3-yl)methyl)imidazolidin-2-ylidene]-1,1,1-trifluoropropan-2-one, reference compound]
Brown rice planthopper, Kumamoto low susceptibility (rice soil drenching), effect [2]: 45
pest or weed control at 0.01 mg/pot (small brown planthopper [1]; [5]): 20%
pest or weed control at 0.05 mg/pot (small brown planthopper [1]; [4]): 100%

O=C(/C=C1\SCCN1Cc1ccc(Cl)nc1)C(F)(F)F [Comparative Example 5, 3-[3-((6-chloropyridin-3-yl)methyl)thiazolidin-2-ylidene]-1,1,1-trifluoropropan-2-one, reference compound]
Brown rice planthopper, Kumamoto low susceptibility (rice soil drenching), effect [2]: 25
pest or weed control at 0.01 mg/pot (small brown planthopper [1]; [5]): 15%
pest or weed control at 0.05 mg/pot (small brown planthopper [1]; [4]): 95%

O=C(C(C(=O)C(F)(F)F)=C1NCCN1Cc1ccc(Cl)nc1)C(F)(F)F [Comparative Example 6, 3-[1-((6-chloropyridin-3-yl)methyl)imidazolidin-2-ylidene]-1,1,1,5,5,5-hexafluoropentan-2,4-dione, reference compound]
Brown rice planthopper, Kumamoto low susceptibility (rice soil drenching), effect [2]: 25
pest or weed control at 0.01 mg/pot (small brown planthopper [1]; [6]): 20%
pest or weed control at 0.05 mg/pot (small brown planthopper [1]; [6]): 100%

O=C(/N=C1\NCCN1Cc1ccc(Cl)nc1)C(F)(F)F [Comparative Example 7, N-[1-((6-chloropyridin-3-yl)methyl)imidazolidin-2-ylidene]-2,2,2-trifluoroacetamide, reference compound]
Brown rice planthopper, Kumamoto low susceptibility (rice soil drenching), effect [2]: 20
pest or weed control at 0.01 mg/pot (small brown planthopper [1]; [5]): 5%
pest or weed control at 0.05 mg/pot (small brown planthopper [1]; [4]): 63%

O=C(/N=C1\SCCN1Cc1ccc(Cl)nc1)C(F)(F)F [Comparative Example 8, N-[3-((6-chloropyridin-3-yl)methyl)thiazolidin-2-ylidene]-2,2,2-trifluoroacetamide, reference compound]
pest or weed control at 0.05 mg/pot (small brown planthopper [1]; [4]): 20%

N#CNCc1ccc(Cl)nc1 [Compound 1 in Patent Document 1, N-[(6-chloropyridin-3-yl)methyl]cyanamide, reference compound]
mortality at 500 ppm (cotton aphid; in Cucumis sativus, 72 h): 65%

O=C(N=c1ccccn1Cc1ccc(Cl)nc1)C(Cl)(Cl)Cl [Compound 235, 2,2,2-trichloro-N-[1-((6-chloropyridin-3-yl)methyl)pyridin-2(1H)-ylidene]acetamide]
mortality at 100 ppm (diamondback moth; in Brassica oleracea, 72 h): ≥ 80%
mortality at 500 ppm (diamondback moth; in Brassica oleracea, 72 h): ≥ 80%
mortality at 20 µg/seedling (small brown planthopper [3]): ≥ 80%
mortality at 20 ppm (cotton aphid; in Cucumis sativus, 72 h): ≥ 80%
mortality at 100 ppm (cotton aphid; in Cucumis sativus, 72 h): ≥ 80%
mortality at 500 ppm (cotton aphid; in Cucumis sativus, 72 h): ≥ 80%

O=C(CCl)N=c1ccccn1Cc1ccc(Cl)nc1 [Compound 236, 2-chloro-N-[1-((6-chloropyridin-3-yl)methyl)pyridin-2(1H)-ylidene]acetamide]
mortality at 20 ppm (cotton aphid; in Cucumis sativus, 72 h): ≥ 80%
mortality at 100 ppm (cotton aphid; in Cucumis sativus, 72 h): ≥ 80%
mortality at 50 ppm (rice leaf bug): ≥ 80%

CC(c1ccc(Cl)nc1)n1ccccc1=NC(=O)C(F)(F)F (centres unmarked) [Compound 237, N-[1-(1-(6-chloropyridin-3-yl)ethyl)pyridin-2(1H)-ylidene]-2,2,2-trifluoroacetamide]
Insecticidal effects (mortality), common cutworm third-instar larvae (common cutworm): 33
mortality at 20 ppm (diamondback moth; [7]): 100%
mortality at 100 ppm (diamondback moth; [7]): 100%
mortality at 500 ppm (diamondback moth; [7]): 100%
mortality at 100 ppm (diamondback moth; in Brassica oleracea, 72 h): ≥ 80%
mortality at 500 ppm (diamondback moth; in Brassica oleracea, 72 h): ≥ 80%
mortality at 20 µg/seedling (small brown planthopper [3]): ≥ 80%
mortality at 0.5 mg/seedling (small brown planthopper [3]; [8]): 50%
mortality at 2 mg/seedling (small brown planthopper [3]; [8]): 100%
mortality at 20 mg/seedling (small brown planthopper [3]; [8]): 100%
mortality at 20 ppm (cotton aphid; [9]): 85%
mortality at 100 ppm (cotton aphid; [9]): 100%
mortality at 500 ppm (cotton aphid; [9]): 100%
mortality at 20 ppm (cotton aphid; in Cucumis sativus, 72 h): ≥ 80%
mortality at 100 ppm (cotton aphid; in Cucumis sativus, 72 h): ≥ 80%
mortality at 500 ppm (cotton aphid; in Cucumis sativus, 72 h): ≥ 80%
pest or weed control at 0.01 mg/pot (small brown planthopper [1]; [5]): 75%
pest or weed control at 0.05 mg/pot (small brown planthopper [1]; [4]): 100%
mortality at 0.05 mg/seedling (small brown planthopper [1]; soil): ≥ 80%
mortality at 0.01 mg/pot (small brown planthopper [1]; [10]): 75%
mortality at 0.05 mg/pot (small brown planthopper [1]; [10]): 100%
mortality at 500 ppm (western flower thrips; 72 h): ≥ 80%
mortality at 500 ppm (western flower thrips; [11]): 90%

O=C(N=c1ccccn1Cc1ccc(Cl)nc1)C(F)F [Compound 238, N-[1-((6-chloropyridin-3-yl)methyl)pyridin-2(1H)-ylidene]-2,2-difluoroacetamide]
Insecticidal effects (mortality), common cutworm third-instar larvae (common cutworm): 0
mortality at 20 ppm (diamondback moth; [7]): 60%
mortality at 100 ppm (diamondback moth; [7]): 100%
mortality at 100 ppm (diamondback moth; in Brassica oleracea, 72 h): ≥ 80%
mortality at 20 µg/seedling (small brown planthopper [3]): ≥ 80%
mortality at 0.063 mg/seedling (small brown planthopper [3]; [8]): 25%
mortality at 0.25 mg/seedling (small brown planthopper [3]; [8]): 100%
mortality at 0.5 mg/seedling (small brown planthopper [3]; [8]): 100%
mortality at 2 mg/seedling (small brown planthopper [3]; [8]): 100%
mortality at 20 mg/seedling (small brown planthopper [3]; [8]): 100%
mortality at 1.25 ppm (cotton aphid; [9]): 100%
mortality at 5 ppm (cotton aphid; [9]): 100%
mortality at 20 ppm (cotton aphid; [9]): 100%
mortality at 100 ppm (cotton aphid; [9]): 100%
mortality at 20 ppm (cotton aphid; in Cucumis sativus, 72 h): ≥ 80%
mortality at 100 ppm (cotton aphid; in Cucumis sativus, 72 h): ≥ 80%
pest or weed control at 0.005 mg/pot (small brown planthopper [1]; rice soil drenching, 0.005 mg/pot (Table 13), read-out: Small brown planthopper (rice soil drenching), effect): 33%
pest or weed control at 0.01 mg/pot (small brown planthopper [1]; [5]): 100%
pest or weed control at 0.05 mg/pot (small brown planthopper [1]; [4]): 100%
mortality at 0.05 mg/seedling (small brown planthopper [1]; soil): ≥ 80%
mortality at 0.005 mg/pot (small brown planthopper [1]; [10]): 33%
mortality at 0.01 mg/pot (small brown planthopper [1]; [10]): 100%
mortality at 0.05 mg/pot (small brown planthopper [1]; [10]): 100%
mortality at 100 ppm (western flower thrips; 72 h): ≥ 80%
mortality at 100 ppm (western flower thrips; [11]): 95%

O=C(N=c1ccccn1Cc1ccc(Cl)nc1)C(Br)Br [Compound 241, 2,2-dibromo-N-[1-((6-chloropyridin-3-yl)methyl)pyridin-2(1H)-ylidene]-acetamide]
mortality at 500 ppm (diamondback moth; in Brassica oleracea, 72 h): ≥ 80%
mortality at 20 µg/seedling (small brown planthopper [3]): ≥ 80%
mortality at 20 ppm (cotton aphid; in Cucumis sativus, 72 h): ≥ 80%
mortality at 100 ppm (cotton aphid; in Cucumis sativus, 72 h): ≥ 80%
